Series [1] concerns the target T1, EPHA6 (Homo sapiens, UniProt Q9UF33).
T1 sequence (Q9UF33 23-1036): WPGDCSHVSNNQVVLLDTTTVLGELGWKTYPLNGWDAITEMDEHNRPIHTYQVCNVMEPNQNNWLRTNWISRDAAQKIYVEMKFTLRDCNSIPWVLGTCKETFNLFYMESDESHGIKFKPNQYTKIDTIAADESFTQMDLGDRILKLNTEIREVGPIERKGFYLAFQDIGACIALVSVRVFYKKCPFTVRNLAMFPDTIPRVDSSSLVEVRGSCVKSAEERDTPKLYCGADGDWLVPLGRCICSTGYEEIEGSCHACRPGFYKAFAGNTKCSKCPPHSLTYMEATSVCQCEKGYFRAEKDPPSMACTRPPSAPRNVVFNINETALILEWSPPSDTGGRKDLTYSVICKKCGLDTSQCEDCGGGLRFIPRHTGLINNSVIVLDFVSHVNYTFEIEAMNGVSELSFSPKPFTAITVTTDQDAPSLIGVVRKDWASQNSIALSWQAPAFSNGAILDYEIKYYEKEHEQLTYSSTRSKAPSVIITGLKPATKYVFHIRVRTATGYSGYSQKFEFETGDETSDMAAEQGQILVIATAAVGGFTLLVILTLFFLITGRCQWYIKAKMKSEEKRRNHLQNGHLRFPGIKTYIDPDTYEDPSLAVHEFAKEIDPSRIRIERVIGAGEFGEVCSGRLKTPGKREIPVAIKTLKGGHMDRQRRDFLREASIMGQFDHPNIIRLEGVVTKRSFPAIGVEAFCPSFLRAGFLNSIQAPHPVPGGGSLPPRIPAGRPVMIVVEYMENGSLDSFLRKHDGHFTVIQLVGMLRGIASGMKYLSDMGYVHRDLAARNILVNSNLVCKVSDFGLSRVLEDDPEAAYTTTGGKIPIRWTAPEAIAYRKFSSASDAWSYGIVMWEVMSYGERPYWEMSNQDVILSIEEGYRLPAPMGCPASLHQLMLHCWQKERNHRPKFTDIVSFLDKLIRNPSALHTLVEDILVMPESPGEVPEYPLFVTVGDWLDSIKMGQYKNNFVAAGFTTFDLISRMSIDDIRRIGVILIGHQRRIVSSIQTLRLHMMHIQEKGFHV
In words: Kinase assays, selectivity panel (qPCR). The note with it: read-out: % Control @ 300 nM.

In series [2] the test system is SR. As to the kind of experiment: NCI screening panel (SRB). The class given is cell-based. The settings on record: Homo sapiens, SR (Leukemia), 48 h; for CC50: read-out: LC50 (the source's name).
Series [3] has as its system SN12C. In words: NCI screening panel (SRB). In kind it is cell-based. The settings on record: Homo sapiens, SN12C (Renal), 48 h; for CC50: read-out: LC50 (the source's name).
In series [4] the target is LCK (Lymphocyte TK) (Homo sapiens, UniProt P06239). In words: Kinase assays, selectivity panel (qPCR). The note with it: read-out: % Control @ 300 nM.
For series [5], the system named is MDA-MB-435. In words: NCI screening panel (SRB). The settings on record: Homo sapiens, MDA-MB-435 (Melanoma), 48 h; for CC50: read-out: LC50 (the source's name). The class given is cell-based.
Series [6] deals with ERBB4 (Homo sapiens, UniProt Q15303). As to the kind of experiment: Kinase assays, selectivity panel (qPCR). The settings on record: read-out: % Control @ 300 nM.
The test system of series [7] is NCI-H322M. In words: cells. The note with it: Homo sapiens, 48 h; for CC50: read-out: LC50.
In series [8] the test system is ACHN. In words: NCI screening panel (SRB). In kind it is cell-based. The settings on record: Homo sapiens, ACHN (Renal), 48 h; for CC50: read-out: LC50 (the source's name).
Series [9] addresses BLK (B-lymphoid TK) (Homo sapiens, UniProt P51451). In words: Kinase assays, selectivity panel (qPCR). The note with it: read-out: % Control @ 300 nM.
Series [10] concerns U251. In words: NCI screening panel (SRB). The note with it: Homo sapiens, U-251, U251 (CNS), 48 h; for CC50: read-out: LC50 (the source's name). In kind it is cell-based.
Series [11] addresses EGFR (L858R, T790M) (Homo sapiens, UniProt P00533, L858R/T790M). In words: Kinase assays, selectivity panel (qPCR). The note with it: read-out: % Control @ 300 nM.
In series [12] the test system is A549/ATCC. In words: NCI screening panel (SRB). The class given is cell-based. The settings on record: Homo sapiens, A549/ATCC (NSCLC), 48 h; for CC50: read-out: LC50 (the source's name).
Series [13] is described as follows: Log P determination (HPLC with reference substances). The note with it: HPLC retention against reference substances of known log P. The class given is physicochemical. The procedure: Prepare thiourea in acetonitrile and ultrapure water mixture (1:1 in v:v) as unretained organic substance sample. Prepare acetanilide, methyl benzoate, benzophenone, benzyl benzoate, fluoranthene and DDT in acetonitrile and ultrapure water mixture (1:1 in v:v) as reference substances mixture.
Prepare the stock solutions of test compounds and control compound progesterone in acetonitrile at the concentration of 2 mM. Dilute one volume of the stock solution with one volume of ultrapure water. If not soluble, filtrate the sample using a 0.45 μm nylon membrane.
Prepare acidic or basic mobile phase according to the character of test compounds. Run a blank sample (ultrapure water mixture (1:1 in v:v)), followed by unretained organic substance sample and reference substances mixture. Then run the test compounds and control compound in singlet, and at the end of the batch rerun the reference substances mixture.

The target in series [14] is CYP 2C19 (Homo sapiens, UniProt P33261). In words: CYP450 inhibition. The class given is in vitro ADME. The procedure: (§1) Prepare stock solutions of the test compound and positive control compounds described in Table 8 in DMSO at 0, 0.2, 1, 2, 10, 50, 200, 2000 and 10000 μM. Transfer 1 μL of the stock solutions to the Incubation Plate. The final concentrations of test compound or positive control compound are 0, 0.001, 0.005, 0.01, 0.05, 0.25, 1, 10 and 50 μM. All experiments are performed in duplicate.

In series [15] the target is CYP 2C9 (Homo sapiens, UniProt P11712). In words: CYP450 inhibition. In kind it is in vitro ADME. The procedure:
as §1

In series [16] the target is CYP 1A2 (Homo sapiens, UniProt P05177). As to the kind of experiment: CYP450 inhibition. The class given is in vitro ADME. The procedure:
as §1

Series [17] deals with CYP 2D6 (Homo sapiens, UniProt P10635). As to the kind of experiment: CYP450 inhibition. In kind it is in vitro ADME. The procedure: as §1
CYP 2D6, sequence (P10635 whole entry): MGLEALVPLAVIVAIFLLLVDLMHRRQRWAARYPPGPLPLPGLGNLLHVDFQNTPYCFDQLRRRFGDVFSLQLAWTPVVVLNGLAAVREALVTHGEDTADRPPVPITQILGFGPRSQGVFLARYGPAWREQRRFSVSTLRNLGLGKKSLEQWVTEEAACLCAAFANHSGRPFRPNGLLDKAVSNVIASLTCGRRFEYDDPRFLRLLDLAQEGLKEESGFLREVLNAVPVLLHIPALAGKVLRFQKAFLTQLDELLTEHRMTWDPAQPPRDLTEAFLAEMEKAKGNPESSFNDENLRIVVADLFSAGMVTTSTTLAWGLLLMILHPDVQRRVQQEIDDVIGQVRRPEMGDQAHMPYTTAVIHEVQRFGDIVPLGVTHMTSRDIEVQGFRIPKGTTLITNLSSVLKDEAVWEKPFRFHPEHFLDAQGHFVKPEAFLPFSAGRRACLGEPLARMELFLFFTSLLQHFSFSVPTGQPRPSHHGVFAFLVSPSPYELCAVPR

EGFR (L858R, T790M), sequence (P00533 25-1210 T790M/L858R): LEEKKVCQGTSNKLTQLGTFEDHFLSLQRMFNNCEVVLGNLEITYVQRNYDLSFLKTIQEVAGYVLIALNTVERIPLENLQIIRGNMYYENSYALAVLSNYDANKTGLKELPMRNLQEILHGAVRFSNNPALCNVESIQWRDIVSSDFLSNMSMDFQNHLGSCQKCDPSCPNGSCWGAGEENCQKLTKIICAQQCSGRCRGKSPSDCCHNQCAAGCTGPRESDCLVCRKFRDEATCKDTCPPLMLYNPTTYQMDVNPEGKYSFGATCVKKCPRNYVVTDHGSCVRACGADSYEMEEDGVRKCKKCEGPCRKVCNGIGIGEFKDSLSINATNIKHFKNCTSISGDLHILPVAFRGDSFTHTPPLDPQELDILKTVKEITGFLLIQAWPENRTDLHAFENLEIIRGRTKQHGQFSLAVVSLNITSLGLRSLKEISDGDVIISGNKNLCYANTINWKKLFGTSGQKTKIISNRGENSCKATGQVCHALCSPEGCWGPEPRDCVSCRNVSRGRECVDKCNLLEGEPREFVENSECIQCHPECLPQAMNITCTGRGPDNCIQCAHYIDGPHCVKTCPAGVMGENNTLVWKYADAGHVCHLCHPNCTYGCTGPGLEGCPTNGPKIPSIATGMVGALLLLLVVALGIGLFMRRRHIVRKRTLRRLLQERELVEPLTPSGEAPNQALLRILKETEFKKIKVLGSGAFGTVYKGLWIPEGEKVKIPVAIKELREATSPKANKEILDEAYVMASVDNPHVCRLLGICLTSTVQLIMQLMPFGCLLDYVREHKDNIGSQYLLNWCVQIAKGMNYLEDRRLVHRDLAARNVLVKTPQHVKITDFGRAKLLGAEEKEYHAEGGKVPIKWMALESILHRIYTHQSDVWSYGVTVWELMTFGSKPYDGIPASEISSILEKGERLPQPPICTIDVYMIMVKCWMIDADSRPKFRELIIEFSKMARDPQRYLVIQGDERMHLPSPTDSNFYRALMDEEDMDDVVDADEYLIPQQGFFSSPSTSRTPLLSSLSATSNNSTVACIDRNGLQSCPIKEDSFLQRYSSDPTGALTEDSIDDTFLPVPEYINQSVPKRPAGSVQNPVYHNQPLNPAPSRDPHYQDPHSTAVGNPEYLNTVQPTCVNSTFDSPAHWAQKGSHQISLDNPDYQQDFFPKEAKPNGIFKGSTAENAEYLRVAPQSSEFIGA
CYP 1A2, sequence (P05177 whole entry): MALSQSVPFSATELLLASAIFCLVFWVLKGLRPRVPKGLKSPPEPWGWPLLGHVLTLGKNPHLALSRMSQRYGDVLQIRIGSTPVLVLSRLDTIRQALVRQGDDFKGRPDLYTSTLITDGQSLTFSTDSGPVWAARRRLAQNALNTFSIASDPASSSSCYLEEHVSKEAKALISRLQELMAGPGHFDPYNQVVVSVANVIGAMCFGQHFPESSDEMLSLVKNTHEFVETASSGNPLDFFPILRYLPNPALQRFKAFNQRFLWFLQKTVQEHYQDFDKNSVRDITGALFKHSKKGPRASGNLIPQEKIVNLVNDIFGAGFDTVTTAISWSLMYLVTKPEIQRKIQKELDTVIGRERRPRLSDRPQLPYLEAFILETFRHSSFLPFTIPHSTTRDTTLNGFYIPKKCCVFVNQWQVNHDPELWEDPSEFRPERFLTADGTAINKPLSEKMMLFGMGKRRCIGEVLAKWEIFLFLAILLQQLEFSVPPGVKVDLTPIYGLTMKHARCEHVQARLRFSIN
ERBB4, sequence (Q15303 26-1308): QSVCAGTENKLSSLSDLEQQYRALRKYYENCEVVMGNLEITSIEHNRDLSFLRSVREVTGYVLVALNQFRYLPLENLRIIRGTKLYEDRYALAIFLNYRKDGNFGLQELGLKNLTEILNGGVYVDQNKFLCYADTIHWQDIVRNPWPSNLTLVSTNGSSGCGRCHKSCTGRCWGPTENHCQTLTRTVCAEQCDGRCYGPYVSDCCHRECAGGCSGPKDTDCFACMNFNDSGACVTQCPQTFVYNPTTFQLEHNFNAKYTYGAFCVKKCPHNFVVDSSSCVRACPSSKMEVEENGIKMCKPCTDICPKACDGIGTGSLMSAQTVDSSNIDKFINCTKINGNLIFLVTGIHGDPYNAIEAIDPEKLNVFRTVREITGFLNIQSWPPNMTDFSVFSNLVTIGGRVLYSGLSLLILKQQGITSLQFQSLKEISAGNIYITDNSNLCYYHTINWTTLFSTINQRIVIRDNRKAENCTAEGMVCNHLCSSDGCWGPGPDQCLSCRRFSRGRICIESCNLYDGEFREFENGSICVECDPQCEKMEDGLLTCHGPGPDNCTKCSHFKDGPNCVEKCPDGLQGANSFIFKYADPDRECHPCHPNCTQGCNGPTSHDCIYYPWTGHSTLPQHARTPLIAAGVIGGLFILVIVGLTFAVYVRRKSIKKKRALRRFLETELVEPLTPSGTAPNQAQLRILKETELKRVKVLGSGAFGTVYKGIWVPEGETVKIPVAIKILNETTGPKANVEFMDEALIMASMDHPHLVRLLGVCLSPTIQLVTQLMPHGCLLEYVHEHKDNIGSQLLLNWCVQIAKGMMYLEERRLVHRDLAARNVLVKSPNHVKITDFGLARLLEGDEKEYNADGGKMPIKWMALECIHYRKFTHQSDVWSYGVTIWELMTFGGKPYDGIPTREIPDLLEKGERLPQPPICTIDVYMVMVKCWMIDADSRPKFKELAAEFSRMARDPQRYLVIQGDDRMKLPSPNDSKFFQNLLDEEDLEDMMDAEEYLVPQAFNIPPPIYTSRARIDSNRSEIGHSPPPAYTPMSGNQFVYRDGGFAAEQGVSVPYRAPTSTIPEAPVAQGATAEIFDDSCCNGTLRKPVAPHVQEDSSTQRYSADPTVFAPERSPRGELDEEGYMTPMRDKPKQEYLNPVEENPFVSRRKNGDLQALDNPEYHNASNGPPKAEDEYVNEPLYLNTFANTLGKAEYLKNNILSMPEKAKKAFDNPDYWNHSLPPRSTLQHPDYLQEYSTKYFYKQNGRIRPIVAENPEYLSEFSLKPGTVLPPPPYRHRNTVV
CYP 2C19, sequence (P33261 whole entry): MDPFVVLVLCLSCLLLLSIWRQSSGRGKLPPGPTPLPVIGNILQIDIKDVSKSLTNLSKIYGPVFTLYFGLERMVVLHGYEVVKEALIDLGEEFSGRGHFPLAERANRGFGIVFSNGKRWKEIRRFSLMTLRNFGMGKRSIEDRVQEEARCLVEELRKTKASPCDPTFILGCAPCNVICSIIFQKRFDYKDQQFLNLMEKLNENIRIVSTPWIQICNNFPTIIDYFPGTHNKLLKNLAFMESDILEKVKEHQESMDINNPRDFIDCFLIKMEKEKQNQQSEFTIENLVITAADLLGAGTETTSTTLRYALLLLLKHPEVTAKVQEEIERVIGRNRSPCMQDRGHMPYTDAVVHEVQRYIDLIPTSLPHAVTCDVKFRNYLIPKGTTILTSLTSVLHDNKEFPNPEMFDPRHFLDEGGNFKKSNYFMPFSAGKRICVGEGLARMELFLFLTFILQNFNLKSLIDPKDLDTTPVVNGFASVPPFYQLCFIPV
CYP 2C9, sequence (P11712 whole entry): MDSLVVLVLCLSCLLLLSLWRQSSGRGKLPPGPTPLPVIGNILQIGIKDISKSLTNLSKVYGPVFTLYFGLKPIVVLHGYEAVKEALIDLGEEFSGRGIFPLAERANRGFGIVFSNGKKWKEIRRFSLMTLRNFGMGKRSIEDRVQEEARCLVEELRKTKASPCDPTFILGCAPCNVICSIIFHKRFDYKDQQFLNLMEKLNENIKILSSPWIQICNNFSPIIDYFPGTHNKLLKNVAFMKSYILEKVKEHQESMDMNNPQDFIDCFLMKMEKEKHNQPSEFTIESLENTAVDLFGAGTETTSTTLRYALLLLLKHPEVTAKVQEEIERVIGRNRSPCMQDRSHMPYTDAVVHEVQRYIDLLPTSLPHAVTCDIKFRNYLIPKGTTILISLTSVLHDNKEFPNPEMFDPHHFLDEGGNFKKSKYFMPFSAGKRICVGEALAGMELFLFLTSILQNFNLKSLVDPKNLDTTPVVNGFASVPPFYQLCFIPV
BLK (B-lymphoid TK), sequence (P51451 whole entry): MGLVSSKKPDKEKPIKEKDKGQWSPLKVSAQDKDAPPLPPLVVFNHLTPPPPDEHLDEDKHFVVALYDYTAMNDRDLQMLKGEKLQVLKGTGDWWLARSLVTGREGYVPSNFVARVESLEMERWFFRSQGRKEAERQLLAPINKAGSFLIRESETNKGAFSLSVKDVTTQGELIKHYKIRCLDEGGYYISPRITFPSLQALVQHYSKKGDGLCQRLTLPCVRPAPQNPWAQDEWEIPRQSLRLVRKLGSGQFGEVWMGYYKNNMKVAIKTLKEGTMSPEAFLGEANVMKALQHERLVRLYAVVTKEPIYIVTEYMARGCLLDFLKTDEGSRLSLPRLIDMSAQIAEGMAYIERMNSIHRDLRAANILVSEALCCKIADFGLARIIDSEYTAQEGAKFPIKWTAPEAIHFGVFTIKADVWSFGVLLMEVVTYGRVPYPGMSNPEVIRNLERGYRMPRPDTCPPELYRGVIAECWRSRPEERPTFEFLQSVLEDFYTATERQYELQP

Consider `CN(C)C/C=C/C(=O)Nc1cc2c(Nc3ccc(F)c(Cl)c3F)ncnc2cc1OCCOC(F)F.O=C(O)/C=C\C(=O)O.O=C(O)/C=C\C(=O)O` [Example I-9-MA, (E)-N-[4-(3-chloro-2,4-difluoro-anilino)-7-[2-(difluoromethoxy)ethoxy]quinazolin-6-yl]-4-(dimethylamino)but-2-enamide di-maleic acid salt], for which the remaining activity at 0.3 µM was found to be 3.5% in series [1]; 1.3% in series [4]; 1.8% in series [6]; 0.5% in [9]; 3.5% in series [11]. Besides, the GI50 is 0.439 µM in series [2]; 0.054 µM in series [3]; 1.17 µM in series [5]; below 0.01 µM in [7]; below 0.01 µM in series [8]; 2.17 µM in [10]. The same compound registered a GI50 in series [12] of 0.77 µM. The CC50 in series [2] stood at 59.2 µM; in series [3], 28.1 µM; in [5], 27.2 µM; in series [7], 28.2 µM; in series [8] it was 6.01 µM; in [10] it was 29.6 µM. The CC50 in series [12] stood at 36.3 µM.

For the compound `O=C(/C=C/CN1CCCCC1)Nc1cc2c(Nc3ccc(F)c(Cl)c3F)ncnc2cc1OCCOC(F)F.O=C(O)/C=C\C(=O)O.O=C(O)/C=C\C(=O)O` [Example I-10-MA, (E)-N-[4-(3-chloro-2,4-difluoro-anilino)-7-[2-(difluoromethoxy)ethoxy]quinazolin-6-yl]-4-(1-piperidyl)but-2-enamide di-maleic acid salt], the remaining activity at 0.3 µM in series [1] was 3.9%; in [4] it was 1.3%; in series [6], 3.2%; in [9] it was 0.3%; in [11] it was 2.4%. Also, the GI50 was 0.816 µM in series [2]; 0.281 µM in [3]; 1.8 µM in series [5]; below 0.01 µM in series [7]; below 0.01 µM in [8]; 2.17 µM in series [10]. Moreover, the GI50 in [12] is 1 µM. For the same compound, the CC50 in series [2] is above 100 µM; in [3], 41.2 µM; in [5], 28.6 µM; in series [7], 30.3 µM; in series [8], 15 µM; in [10] it was 40.7 µM. Besides, the CC50 in series [12] came out at 36.6 µM.

For `CN(C)C/C=C/C(=O)Nc1cc2c(Nc3cccc(Cl)c3F)ncnc2cc1OCCOC(F)F.O=C(O)/C=C\C(=O)O` [Example I-5-MA, (E)-N-[4-(3-chloro-2-fluoro-anilino)-7-[2-(difluoromethoxy)ethoxy]quinazolin-6-yl]-4-(dimethylamino)but-2-enamide dimaleic acid salt], the chromatographic logP in series [13] worked out at 3.57. Also, the IC50 in [14] is 29.1 µM; in series [15], 30 µM; in series [16], above 50 µM; in series [17], 25.7 µM.

Consider `CN(C)C/C=C/C(=O)Nc1cc2c(Nc3ccc(F)c(Cl)c3)ncnc2cc1O[C@H]1CCOC1` [Afatinib, reference compound], for which the chromatographic logP in series [13] worked out at 4.26. The IC50 in series [14] is 47.8 µM; in series [15], 34.7 µM; in series [16], above 50 µM; in [17], 28 µM.
